The values that follow come from patent publication US5776940A, “Phenylxanthine derivatives” (Glaxo Wellcome Inc., priority 1994, dated 1998).

The target in assay [1] is T1, lyso-PAF: acetyl-CoA acetyltransferase (Rattus norvegicus, UniProt P0C1Q3).
T1 construct: measured in a lysate of rat pleural neutrophils; endogenous in cells
T1 sequence (P0C1Q3 1-544): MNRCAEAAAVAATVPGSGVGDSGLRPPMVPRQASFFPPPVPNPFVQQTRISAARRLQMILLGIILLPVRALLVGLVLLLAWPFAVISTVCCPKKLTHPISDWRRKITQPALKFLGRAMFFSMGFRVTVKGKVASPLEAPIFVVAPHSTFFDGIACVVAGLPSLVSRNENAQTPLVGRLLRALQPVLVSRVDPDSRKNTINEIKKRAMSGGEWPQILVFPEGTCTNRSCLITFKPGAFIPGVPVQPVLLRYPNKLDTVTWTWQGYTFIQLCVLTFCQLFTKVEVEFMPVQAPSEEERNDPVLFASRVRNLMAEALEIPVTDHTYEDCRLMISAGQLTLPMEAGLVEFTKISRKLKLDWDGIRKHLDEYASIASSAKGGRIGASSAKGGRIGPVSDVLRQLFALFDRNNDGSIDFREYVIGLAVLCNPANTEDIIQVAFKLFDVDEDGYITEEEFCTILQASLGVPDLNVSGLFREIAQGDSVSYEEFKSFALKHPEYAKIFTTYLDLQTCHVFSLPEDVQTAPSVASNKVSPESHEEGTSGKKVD
The assay can be described thus: Lyso-PAF: Acetyl-CoA Acetyltransferase [Synthesis of Platelet-Activating Factor (PAF)] in a lysate of rat pleural neutrophils. Particulars: lysate of activated rat pleural neutrophils, pH 6.9, 37° C., 10 min; read-out: Enzymes IC50 PAF. The format is biochemical, rat (male Harlan Sprague-Dawley). How it is done:
Compounds of the invention were assayed for inhibiting activity in arachidonate metabolism and PAF synthesis as follows.
B) Lyso-PAF: Acetyl-CoA Acetyltransferase [Synthesis of Platelet-ActivatingFactor (PAF)]
Synthesis of PAF (platelet-activating factor) was measured in a lysate of rat pleural neutrophils, as described by White and Faison, Prostaglandins,1988; 35: p939-44. Pleural exudate cells, harvested from male Harlan Sprague-Dawley rats (150±20 g) 3 hr after injection of 0.5 mg carrageenan, were centrifuged at 200 g for 10 min at 4° C., washed, and resuspended at approximately 17 million cells/mi in a buffer consisting of 50 mM potassium phosphate, 144 mM NaCl, 6 mM KCl, 5 mM glucose, 1 mM MgCl2, 1.3 mM CaCl2, pH 7.4. Resuspended cells were incubated with calcium ionophore A23187 (1 μM) for 5 min at 37° C. to activate the acetyltransferase and then centrifuged at 755 g for 2 min at 4° C. Pellets were resuspended in cold distilled water and sonicated in a 50 Hz ultrasonic bath. Portions (250 μl) of the resulting lysate were mixed with buffer, test compound, and substrates to give 36 mM Tris-Cl, pH 6.9, 12 μM lyso-PAF, and 2.3 μM [^14 C]acetyl-CoA (0.06 μCi) in a total volume of 500 μl. Blank assays contained nonactivated neutrophils and no added lyso-PAF. The compound being tested was added prior to substrates. After incubation at 37° C. for 10 min. 0.68 ml of 2N HCl and 2.53 ml of 1:1 chloroform/methanol were added to each tube to extract labeled PAF. Each tightly-covered tube was briefly sonicated in a Branson 50 Hz bath, vortexed for 20 sec, and centrifuged at 160 g for 5 min to separate solvent phases. A 0.90 ml aliquot of the lower (organic)phase was pipetted into a glass scintillation vial, dried under nitrogen using an N-EVAP apparatus (Organomation Associates), and counted using scintillation techniques.

For assay [2], the system named is C. parvum/LPS septic shock in mice. The assay can be described thus: In vivo Septic Shock model C. parvum/LPS Shock. Also on record: species or system mouse (male CD-1). Particulars: for % Survival After 48 hr / Alive/Total at 3 hr / Alive/Total at 48 hr: schedule -2,0 hr. The method, then:
3) In vivo Septic Shock model C. parvum/LPS Shock
Male CD-1 mice, 25-30 g (Charles River: Raleigh, N.C.), are injected intravenously (i.v.) with 100 μg killed C. parvum (Coparvax; Burroughs Wellcome, RTP, NC). Nine or ten days later the mice are injected i.v. with 20 μg E. coli 026:B6 lipopolysaccharide (LPS; Difco Labs, Detroit, Mich.) in the presence of the analgesic butorphanol (150 μg per mouse). (E)-4-(1,3-bis(cyclohexylmethyl)-1, 2, 3, 6-tetrahydro-2, 6dioxo-9H-purin-8-yl)cinnamic acid was dissolved in ENCAPSIN (hydroxypropyl-β-cyclodextrin) for i.v. dosing before, at the same time as, and after the endotoxin. Control (untreated) animals go into shock within the first 90 min following LPS administration, and approximately 50% die within 3-5 hr. Mice are monitored for the first 7 hr and at 24 and 48 hr for survival.
(E)-4-(1,3-bis(cyclohexylmethyl)-1, 2, 3, 6-tetrahydro-2, 6-dioxo-9H-purin-8-yl) cinnamic acid was administered at 0.001 to 80 mg/kg i.v. in the Septic Shock model described above.

In general, IC50 refers to the concentration that inhibits the measured activity by half.

Turning to `O=C(O)/C=C/c1ccc(-c2nc3c(=O)n(CC4CCCCCC4)c(=O)n(CC4CCCCCC4)c3[nH]2)cc1` [Example 7, (E)-4-[1,3 Bis(cycloheptylmethyl)-1,2,3,6-tetrahydro-2,6-dioxo-9H-purin-8-yl]cinnamicAcid], in assay [1], the 50% inhibitory concentration (IC50) amounted to 12 µM.
In the case of `O=C(O)/C=C/c1ccc(-c2nc3c(=O)n(CC4CCCC4)c(=O)n(CC4CCCC4)c3[nH]2)cc1` [Example 4, (E)-4-[1,3 Bis(cyclopentylmethyl)-1,2,3,6-tetrahydro-2,6-dioxo-9H-purin-8-yl]cinnamicAcid], in assay [1], the IC50 was found to be 15 µM.
As for `O=C(O)/C=C/c1ccc(-c2nc3c(=O)n(CC4CCCCC4)c(=O)n(CC4CCCCC4)c3[nH]2)cc1` [Example 1, (E)-4-[1,3 Bis(cyclohexylmethyl)-1,2,3,6-tetrahydro-2,6-dioxo-9H-purin-8-yl]cinnamic Acid], the IC50 in assay [1] is 2.5 µM. In addition, the “% Survival After 48 hr” value came to 13% in assay [2] (0.001 mg/kg i.v.); 13% in assay [2] (0.01 mg/kg i.v.); 50% in assay [2] (0.1 mg/kg i.v.); 88% in assay [2] (1.0 mg/kg i.v.); 75% in assay [2] (5.0 mg/kg i.v.); 75% in assay [2] (10 mg/kg i.v.). For the same molecule, the “% Survival After 48 hr” value is given as 75% in assay [2] (20 mg/kg i.v.), 75% in assay [2] (40 mg/kg i.v.), 75% in assay [2] (60 mg/kg i.v.) and 63% in assay [2] (80 mg/kg i.v.). Also, the “Alive/Total at 3 hr” value is 6/8 in assay [2] (0.001 mg/kg i.v.); 7/8 in assay [2] (0.01 mg/kg i.v.); 6/8 in assay [2] (0.1 mg/kg i.v.); 6/8 in assay [2] (1.0 mg/kg i.v.); 7/8 in assay [2] (5.0 mg/kg i.v.); 8/8 in assay [2] (10 mg/kg i.v.). The “Alive/Total at 3 hr” value in assay [2] (20 mg/kg i.v.) is 8/8; in assay [2] (40 mg/kg i.v.), 7/8; in assay [2] (60 mg/kg i.v.), 7/8; in assay [2] (80 mg/kg i.v.), 7/8. The “Alive/Total at 48 hr” value in assay [2] (0.001 mg/kg i.v.) is recorded as 1/8; in assay [2] (0.01 mg/kg i.v.) it was 1/8; in assay [2] (0.1 mg/kg i.v.) it was 4/8; in assay [2] (1.0 mg/kg i.v.), 7/8; in assay [2] (5.0 mg/kg i.v.), 6/8; in assay [2] (10 mg/kg i.v.), 6/8. In addition, the “Alive/Total at 48 hr” value in assay [2] (20 mg/kg i.v.) is reported as 6/8; in assay [2] (40 mg/kg i.v.), 6/8; in assay [2] (60 mg/kg i.v.), 6/8; in assay [2] (80 mg/kg i.v.), 5/8. The “protection (decreasing mortality)” value in assay [2] (0.001 to 80 mg/kg i.v., administered 2 hr before and at the time of LPS) was “greater than 50%”.
